# Test results reported in patent US6030823A, “D-aminoacylase” (Daicel Chemical Industries, Ltd., priority 1998, dated 2000).
# “And” between values parts separate entries of the source, which are not always exact repeats. Equal values may be shown once. Read-outs that look alike come from different tables or passages of the source.
# Columns and labels:
# [1] = tested on: D-aminoacylase derived from Sebekia benihana IFO14309; type: biochemical
# Description: (§1) The enzymatic reaction was performed in the same manner as in (1) except that the metal salts and enzyme inhibitors listed in Tables 10 and 11 (1 mM or 10 mM) were added to the reaction mixture.
# [2] = tested on: D-aminoacylase derived from Sebekia benihana IFO14309; test: Influences of inhibitors on the activity of the enzyme; type: biochemical
# Description: as §1
# [3] = tested on: Sebekia benihana IFO14309; test: Induction of D-aminoacylase, experiment 3 (seed culture, 231 liquid medium, 0.05% inducer); type: cell-based; conditions: experiment 3; 20 mM N-acetyl-D-methionine, 30° C., 5 min
# Description: Third, a seed culture was prepared by incubating the strain in test tubes, each containing 5.0 ml of PY liquid medium for 51 hours with shaking. The seed culture (0.4 ml) was then inoculated with a 2-ml Komagome pipette into test tubes, each containing 8.0 ml of 231 liquid medium (1.0% maltose; 0.2% N.Z.Amine, Type A; 0.1% yeast extract; 0.1% meat extract; pH 7.3) supplemented with 0.05% D-phenylalanine, 0.05% D-tryptophan, 0.05% D-valine, 0.05% L-phenylalanine, 0.05% L-tryptophan, or 0.05% L-valine as inducers, and cultivated for 48 hours with shaking (experiment 3).
# From the culture broth obtained in experiments 1, 2, and 3, the cells were collected by centrifugation at 8000 rpm (7000×g) for 20 min with a refrigerated centrifuge (Hitachi Koki Co., Ltd.). The collected cells were washed with 50 mM Tris-HCl buffer (pH 7.5), collected again by centrifugation using the same centrifuge, then stored at -20° C.
# The stored cells were suspended in 20 ml of 50 mM Tris-HCl buffer (pH 7.5) and were disrupted by sonication at 200 W for 15 min. The lysate was centrifuged at 15,000 rpm for 30 min with the above centrifuge, and the supernatant was obtained as a crude enzyme solution.
# The enzymatic reaction was performed in 1.0 ml of a reaction system containing 20 mM N-acetyl-D-methionine, 50 mM Tris-HCl buffer (pH 7.5), 1 mM CoCl2, and 100 μl of the enzyme solution at 30° C. for 20 min (experiment 1), 10 min (experiment 2), and 5 min (experiment 3). The reaction was stopped by adding a TCA solution.
# [4] = tested on: D-aminoacylase derived from Sebekia benihana IFO14309; test: Substrate specificity of the aminoacylase; type: biochemical; conditions: 20 mM substrate, 50 mM Tris-HCl pH 7.5, 30° C., 5 min
# Description: The substrate specificity of the aminoacylase was examined using N-acetyl-D-methionine, N-acetyl-D-alanine, N-acetyl-D-aspartic acid, N-acetyl-D-leucine, N-acetyl-D-phenylalanine, N-acetyl-D-tryptophan, N-acetyl-D-valine, N-acetyl-L-leucine, N-acetyl-L-methionine, and N-acetyl-L-valine as substrates. The enzyme activity was assayed as follows. A 0.050-ml aliquot of an enzyme solution was added to 0.950 ml of 20 mM N-acetyl-D(or L)-amino acid in 50 mM Tris-HCl buffer (pH 7.5) and incubated at 30° C. for 5 min. The reaction was then stopped by adding 0.50 ml of a TCA solution to the reaction mixture. The relative activity is shown in Table 5, taking the activity for N-acetyl-L-methionine as 100%.
# [5] = column 1 mM, PCMB was used at 0.01 mM
# [6] = column 10 mM, PCMB was used at 0.1 mM
smiles,measurement,setting,value
O=C(O)CN(CCN(CC(=O)O)CC(=O)O)CC(=O)O [EDTA · 2Na],D-Met,[1],1.2 mM and 1.3 mM
same,Residual activity,[1],108%
O=C(O)CN(CCN(CC(=O)O)CC(=O)O)CC(=O)O [EDTA],D-Met,[2],1.6 mM
same,Effect of inhibitors on the enzyme (in words),[2],inhibited
same,Residual activity,[2],100%
[Cl][Fe][Cl] [FeCl2],Effect of metal ions on the enzyme (in words),[1],inhibited
same,D-Met,[1]; metal salt 1 mM,0.24 mM
same,Residual activity,[1]; metal salt 1 mM,20%
same,D-Met,[1]; metal salt 10 mM,0.035 mM
same,Residual activity,[1]; metal salt 10 mM,2.9%
[Cl][Hg][Cl] [HgCl2],Effect of metal ions on the enzyme (in words),[1],inhibited
same,D-Met,[1]; metal salt 1 mM,0.38 mM
same,Residual activity,[1]; metal salt 1 mM,32%
same,D-Met,[1]; metal salt 10 mM,0 mM
same,Residual activity,[1]; metal salt 10 mM,0%
"O=C(O)CI [ICH2 COOH, iodoacetic acid]",Effect of inhibitors on the enzyme (in words),[2],inhibited
[Cl-].[K+] [KCl],D-Met,[1]; metal salt 1 mM,1.2 mM
same,Residual activity,[1]; metal salt 1 mM,100%
same,D-Met,[1]; metal salt 10 mM,1.1 mM
same,Residual activity,[1]; metal salt 10 mM,92%
"N[C@@H](Cc1ccccc1)C(=O)O [L-Phe, L-phenylalanine]",Activity,[3],0.00973 U/ml of broth
same,Specific activity,[3],0.0064 U/mg
"N[C@@H](Cc1c[nH]c2ccccc12)C(=O)O [L-Trp, L-tryptophan]",Activity,[3],0.0243 U/ml of broth
same,Specific activity,[3],0.0134 U/mg
"CC(C)[C@H](N)C(=O)O [L-Val, L-valine]",Activity,[3],0.0265 U/ml of broth
same,Specific activity,[3],0.0161 U/mg
[Cl-].[Cl-].[Mg+2] [MgCl2],D-Met,[1]; metal salt 1 mM,1.3 mM
same,Residual activity,[1]; metal salt 1 mM,108%
same,D-Met,[1]; metal salt 10 mM,1.2 mM
same,Residual activity,[1]; metal salt 10 mM,100%
[Cl][Mn][Cl] [MnCl2],D-Met,[1]; metal salt 1 mM,1.3 mM
same,Residual activity,[1]; metal salt 1 mM,108%
same,D-Met,[1]; metal salt 10 mM,0.73 mM
same,Residual activity,[1]; metal salt 10 mM,61%
"CC(=O)N[C@H](C)C(=O)O [N-Ac-D-Ala, N-acetyl-D-alanine]",Relative activity,[4],1.1%
"CC(=O)N[C@H](CC(N)=O)C(=O)O [N-Ac-D-Asn, N-acetyl-D-asparagine]",Relative activity,[4],1.4%
"CC(=O)N[C@H](CC(C)C)C(=O)O [N-Ac-D-Leu, N-acetyl-D-leucine]",Relative activity,[4],255%
"CSCC[C@@H](NC(C)=O)C(=O)O [N-Ac-D-Met, N-acetyl-D-methionine]",Relative activity,[4],100%
CCN1C(=O)C=CC1=O [N-ethyl-maleimide],D-Met,[2]; inhibitor 1 mM,1.7 mM
same,Residual activity,[2]; inhibitor 1 mM,106%
same,D-Met,[2]; inhibitor 10 mM,1.1 mM
same,Residual activity,[2]; inhibitor 10 mM,69%
[Cl-].[Na+] [NaCl],D-Met,[1],1.3 mM and 1.1 mM
same,Residual activity,[1],108% and 92%
[F-].[Na+] [NaF],D-Met,[2]; inhibitor 1 mM,1.6 mM
same,Residual activity,[2]; inhibitor 1 mM,100%
same,D-Met,[2]; inhibitor 10 mM,1.4 mM
same,Residual activity,[2]; inhibitor 10 mM,88%
[Cl][Ni][Cl] [NiCl2],Effect of metal ions on the enzyme (in words),[1],inhibited
same,D-Met,[1]; metal salt 1 mM,0.53 mM
same,Residual activity,[1]; metal salt 1 mM,44%
same,D-Met,[1]; metal salt 10 mM,0.035 mM
same,Residual activity,[1]; metal salt 10 mM,2.9%
"O=C(O)c1cc[c]([Hg][Cl])cc1 [PCMB, p-chloromercuribenzoic acid]",Effect of inhibitors on the enzyme (in words),[2],inhibited
same,D-Met,[2]; [5],1.8 mM
same,Residual activity,[2]; [5],112%
same,D-Met,[2]; [6],1.6 mM
same,Residual activity,[2]; [6],100%
[Cl-].[Cl-].[Zn+2] [ZnCl2],Effect of metal ions on the enzyme (in words),[1],inhibited
same,D-Met,[1]; metal salt 1 mM,0.50 mM
same,Residual activity,[1]; metal salt 1 mM,42%
same,D-Met,[1]; metal salt 10 mM,0 mM
same,Residual activity,[1]; metal salt 10 mM,0%
